In patent publication US8829034B2, “Compounds which modulate the CB2 receptor” (Boehringer Ingerlheim International GmbH, priority 2006, dated 2014) one finds EC50 and agonistic activity data, which are given here for 36 molecules.

What is called pEC50 is −log10 of the EC50, conventionally taken in molar units. Low readings indicate a large EC50, high ones a small EC50.

The experiment deals with T1, human CB2R (Homo sapiens, UniProt P34972).
T1 construct: host or cells: CHO cells
In words: CB2R mediated modulation of cAMP synthesis. It counts as cell-based. The following applies: for agonistic activity: found through the use of the above described assays. The essentials: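 CHO cells expressing human CB2R were treated with compound for 30 min at 37 °C in buffer containing 1 mM IBMX, 0.25% BSA and 10 uM forskolin. cAMP was measured after lysis. EC50 was taken as 50% inhibition of forskolin-stimulated cAMP, with 100% defined by 1 uM CP55940, using a four-parameter logistic fit.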

pEC50: −log10 of the molar value.

T1 sequence (P34972 whole entry): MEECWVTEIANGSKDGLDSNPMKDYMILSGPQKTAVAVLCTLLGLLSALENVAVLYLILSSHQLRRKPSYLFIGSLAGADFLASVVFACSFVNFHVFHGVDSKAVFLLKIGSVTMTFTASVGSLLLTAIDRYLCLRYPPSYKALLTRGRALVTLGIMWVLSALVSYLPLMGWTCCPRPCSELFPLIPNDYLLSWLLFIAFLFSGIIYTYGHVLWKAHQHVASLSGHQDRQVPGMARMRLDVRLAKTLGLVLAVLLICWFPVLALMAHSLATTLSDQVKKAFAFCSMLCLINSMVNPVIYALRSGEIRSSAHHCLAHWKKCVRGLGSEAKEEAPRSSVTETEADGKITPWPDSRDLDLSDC

Regarding `CC(C)(C)c1cc(NC(=O)C(C)(C)S(=O)(=O)CC2CCCCC2)no1` [N-(5-tert-Butyl-isoxazol-3-yl)-2-cyclohexylmethanesulfonyl-2-methyl-propionamide], the pEC50 is 9.22 and the agonistic activity result was “agonistic activity”.

Regarding `CC(C)(C)c1cc(NC(=O)C(C)(C)S(=O)(=O)C2CCCCC2)on1` [N-(3-tert-Butyl-isoxazol-5-yl)-2-cyclohexanesulfonyl-2-methyl-propionamide], the agonistic activity entry is recorded as “agonistic activity”.

Consider `CC(C)(C(=O)Nc1nc(-c2ccc(Cl)cc2)cs1)S(=O)(=O)C1CCCC1` [N-[4-(4-Chloro-phenyl)-thiazol-2-yl]-2-cyclopentanesulfonyl-2-methyl-propionamide], for which the negative-log EC50 (pEC50) was 8.82 and the agonistic activity result is on record as “agonistic activity”.

As for `CC(C)(C)c1cccc(NC(=O)C(C)(C)S(=O)(=O)CC2CCOCC2)c1` [N-(3-tert-Butyl-phenyl)-2-methyl-2-(tetrahydro-pyran-4-ylmethanesulfonyl)-propionamide], the pEC50 was 7.84 and the agonistic activity entry is on record as “agonistic activity”.

For the molecule `CC(C)(C(=O)Nc1nnc(-c2ccccc2)[nH]1)S(=O)(=O)CC1CCOCC1` [2-Methyl-N-(5-phenyl-4H-1,2,4-triazol-3-yl)-2-(tetrahydro-pyran-4-ylmethanesulfonyl)-propionamide], the pEC50 was 8.77 and the agonistic activity result is “agonistic activity”.

In the case of `CC(C)S(=O)(=O)C(C)(C)C(=O)Nc1cnc2ccccc2c1` [2-Methyl-2-(propane-2-sulfonyl)-N-quinolin-3-yl-propionamide], the agonistic activity entry is “agonistic activity”.

As for `CC(C)c1cc(NC(=O)C(C)(C)S(=O)(=O)CC2CCOCC2)on1` [N-(3-Isopropyl-isoxazol-5-yl)-2-methyl-2-(tetrahydro-pyran-4-ylmethanesulfonyl)-propionamide], the agonistic activity entry is recorded as “agonistic activity”.

On to `CC(C)S(=O)(=O)C(C)(C)C(=O)Nc1ccc2ccccc2c1` [2-Methyl-N-naphthalen-2-yl-2-(propane-2-sulfonyl)-propionamide], for which the agonistic activity result was “agonistic activity”.

As for `CC(C)S(=O)(=O)C(C)(C)C(=O)Nc1nc(-c2ccccc2)cs1` [2-Methyl-N-(4-phenyl-thiazol-2-yl)-2-(propane-2-sulfonyl)-propionamide], the agonistic activity result is listed as “agonistic activity”.

Take `CCCS(=O)(=O)C(C)(C)C(=O)Nc1nc2ccccc2s1` [N-Benzothiazol-2-yl-2-methyl-2-(propane-1-sulfonyl)-propionamide]: the agonistic activity entry is listed as “agonistic activity”.

Turning to `CCCc1cc(NC(=O)C(C)(C)S(=O)(=O)CC2CCOCC2)on1` [2-Methyl-N-(3-propyl-isoxazol-5-yl)-2-(tetrahydro-pyran-4-ylmethanesulfonyl)-propionamide], the agonistic activity entry is “agonistic activity”.

Consider `CC(C)S(=O)(=O)C(C)(C)C(=O)Nc1nc(-c2ccc(Cl)cc2)cs1` [N-[4-(4-Chloro-phenyl)-thiazol-2-yl]-2-methyl-2-(propane-2-sulfonyl)-propionamide], for which the pEC50 is 7.35 and the agonistic activity result was “agonistic activity”.

For the molecule `CC(C)(C)c1cc(NC(=O)C(C)(C)S(=O)(=O)CC2CCNCC2)no1` [N-(5-tert-Butyl-isoxazol-3-yl)-2-methyl-2-(piperidin-4-ylmethanesulfonyl)-propionamide], the agonistic activity result was “agonistic activity”.

Turning to `Cn1nc(C(C)(C)C)cc1NC(=O)C(C)(C)S(=O)(=O)C1CCCCCC1` [N-(5-tert-Butyl-2-methyl-2H-pyrazol-3-yl)-2-cycloheptanesulfonyl-2-methyl-propionamide], the pEC50 was 8.19 and the agonistic activity result is recorded as “agonistic activity”.

For `Cn1nc(C(C)(C)C)cc1NC(=O)C(C)(C)S(=O)(=O)C1CCOCC1` [N-(5-tert-Butyl-2-methyl-2H-pyrazol-3-yl)-2-methyl-2-(tetrahydro-pyran-4-sulfonyl)-propionamide], the agonistic activity entry is “agonistic activity”.

For the molecule `CC(C)(C(=O)Nc1nc(-c2cccnc2)cs1)S(=O)(=O)CC1CCOCC1` [2-Methyl-N-(4-pyridin-3-yl-thiazol-2-yl)-2-(tetrahydro-pyran-4-ylmethanesulfonyl)-propionamide], the agonistic activity entry is recorded as “agonistic activity”.

Regarding `Cn1nc(C(C)(C)C)cc1NC(=O)C(C)(C)S(C)(=O)=O` [N-(5-tert-Butyl-2-methyl-2H-pyrazol-3-yl)-2-methanesulfonyl-2-methyl-propionamide], the agonistic activity result is recorded as “agonistic activity”.

`CC(C)(C)c1cc(NC(=O)C(C)(C)S(=O)(=O)CC2CC2)on1` [N-(3-tert-Butyl-isoxazol-5-yl)-2-cyclopropylmethanesulfonyl-2-methyl-propionamide]: the pEC50 is 7.90 and the agonistic activity result is reported as “agonistic activity”.

Turning to `Cc1nc(NC(=O)C(C)(C)S(=O)(=O)C(C)(C)C)sc1C(C)(C)C` [N-(5-tert-Butyl-4-methyl-thiazol-2-yl)-2-methyl-2-(2-methyl-propane-2-sulfonyl)-propionamide], the negative-log EC50 (pEC50) was 7.97 and the agonistic activity result is given as “agonistic activity”.

Take `CC(C)(C)c1cc(NC(=O)C(C)(C)S(=O)(=O)C2CCCC2)on1` [N-(3-tert-Butyl-isoxazol-5-yl)-2-cyclopentanesulfonyl-2-methyl-propionamide]: the negative logarithm of the EC50 (pEC50) is 9.05 and the agonistic activity result was “agonistic activity”.

For `Cn1nc(-c2ccccc2)cc1NC(=O)C(C)(C)S(=O)(=O)CC1CCOCC1` [2-Methyl-N-(2-methyl-5-phenyl-2H-pyrazol-3-yl)-2-(tetrahydro-pyran-4-ylmethanesulfonyl)-propionamide], the agonistic activity entry is given as “agonistic activity”.

Regarding `Cn1nc(C(C)(C)C)cc1NC(=O)C(C)(C)S(=O)(=O)CC1CCCCO1` (stereo not shown) [N-(5-tert-Butyl-2-methyl-2H-pyrazol-3-yl)-2-methyl-2-(tetrahydro-pyran-2-ylmethanesulfonyl)-propionamide], the agonistic activity entry is on record as “agonistic activity”.

Consider `CCC(C)S(=O)(=O)C(C)(C)C(=O)Nc1cc(C(C)(C)C)no1` (stereo not shown) [2-(Butane-2-sulfonyl)-N-(3-tert-butyl-isoxazol-5-yl)-2-methyl-propionamide], for which the pEC50 was 8.48 and the agonistic activity entry is given as “agonistic activity”.

On to `CC(C)(C(=O)Nc1ccc(C(F)(F)F)cn1)S(=O)(=O)CC1CCOCC1` [2-Methyl-2-(tetrahydro-pyran-4-ylmethanesulfonyl)-N-(5-trifluoromethyl-pyridin-2-yl)-propionamide], for which the pEC50 was 7.14 and the agonistic activity entry is recorded as “agonistic activity”.

With `Cn1nc(C(C)(C)C)cc1NC(=O)C(C)(C)S(=O)(=O)CC1CCC1` [N-(5-tert-Butyl-2-methyl-2H-pyrazol-3-yl)-2-cyclobutylmethanesulfonyl-2-methyl-propionamide], the pEC50 was 7.48 and the agonistic activity result is given as “agonistic activity”.

With `CC(C)(C)c1ccc(NC(=O)C(C)(C)S(=O)(=O)CC2CCOCC2)cc1` [N-(4-tert-Butyl-phenyl)-2-methyl-2-(tetrahydro-pyran-4-ylmethanesulfonyl)-propionamide], the negative logarithm of the EC50 (pEC50) is 8.48 and the agonistic activity entry is on record as “agonistic activity”.

Regarding `CC(C)(C(=O)Nc1nc(C2CC2)cs1)S(=O)(=O)CC1CCOCC1` [N-(4-Cyclopropyl-thiazol-2-yl)-2-methyl-2-(tetrahydro-pyran-4-ylmethanesulfonyl)-propionamide], the agonistic activity entry was “agonistic activity”.

As for `CC(C)(C(=O)Nc1cccc2ccccc12)S(=O)(=O)CC1CCOCC1` [2-Methyl-N-naphthalen-1-yl-2-(tetrahydro-pyran-4-ylmethanesulfonyl)-propionamide], the agonistic activity entry is given as “agonistic activity”.

For `CC(C)(C)c1cc(NC(=O)C(C)(C)S(=O)(=O)C2CCCC2)no1` [N-(5-tert-Butyl-isoxazol-3-yl)-2-cyclopentanesulfonyl-2-methyl-propionamide], the pEC50 is 8.62 and the agonistic activity entry is “agonistic activity”.

As to `CC(C)CCS(=O)(=O)C(C)(C)C(=O)Nc1ccc(C(F)(F)F)cn1` [2-Methyl-2-(3-methyl-butane-1-sulfonyl)-N-(5-trifluoromethyl-pyridin-2-yl)-propionamide], the pEC50 is 7.70 and the agonistic activity result was “agonistic activity”.

Regarding `CC(C)(C(=O)Nc1cc(C(F)(F)F)ccn1)S(=O)(=O)CC1CCOCC1` [2-Methyl-2-(tetrahydro-pyran-4-ylmethanesulfonyl)-N-(4-trifluoromethyl-pyridin-2-yl)-propionamide], the agonistic activity result is recorded as “agonistic activity”.

As for `Cc1ccc(NC(=O)C(C)(C)S(=O)(=O)CC2CCOCC2)nc1` [2-Methyl-N-(5-methyl-pyridin-2-yl)-2-(tetrahydro-pyran-4-ylmethanesulfonyl)-propionamide], the agonistic activity result was “agonistic activity”.

As for `CC(C)(C(=O)Nc1nc(C(F)(F)F)cs1)S(=O)(=O)CC1CCOCC1` [2-Methyl-2-(tetrahydro-pyran-4-ylmethanesulfonyl)-N-(4-trifluoromethyl-thiazol-2-yl)-propionamide], the agonistic activity entry is “agonistic activity”.

For `CC(C)(C(=O)Nc1nc(-c2ccncc2)cs1)S(=O)(=O)CC1CCOCC1` [2-Methyl-N-(4-pyridin-4-yl-thiazol-2-yl)-2-(tetrahydro-pyran-4-ylmethanesulfonyl)-propionamide], the agonistic activity entry is listed as “agonistic activity”.

For `CC(C)(C)c1cc(NC(=O)C(C)(C)S(=O)(=O)CC2CCC2)no1` [N-(5-tert-Butyl-isoxazol-3-yl)-2-cyclobutylmethanesulfonyl-2-methyl-propionamide], the pEC50 was 8.47 and the agonistic activity result is on record as “agonistic activity”.

For `Cn1nc(C(C)(C)C)cc1NC(=O)C(C)(C)S(=O)(=O)C[C@@H]1CCC(=O)N1` [N-(5-tert-Butyl-2-methyl-2H-pyrazol-3-yl)-2-methyl-2-((S)-5-oxo-pyrrolidin-2-ylmethanesulfonyl)-propionamide], the agonistic activity result is on record as “agonistic activity”.
